# Numbered stars: 1 amine (or outer) side, 2 acyl side, 3 side chain; on linkers, the order of the positions; unused ones are H or OH. Square brackets hold non-standard residues; d marks the D form. Peptide text beside a SMILES is read from it. * marks the point of attachment. NH(CH2)9CO = O=C(CCCCCCCCCN[*:1])[*:2]; Lauroyl = CCCCCCCCCCCC(=O)*
# Experiments:
# MRSA 15903 = assay: microbe, parasite or virus in culture; type: cell-based, Staphylococcus aureus
# Experimental: (§1) The fractionary inhibitory (FIC) concentration index for combinations of two antimicrobial agents was calculated as follows: FIC index=FICA+FICB=A/MICA+B/MICB where A and B are the MIC values of agent A and agent B in the combination, MICA and MICB are the MICs of agent A and agent B alone, and FICA and FICB are the FICs of agent A and agent B.
# (§2) The FIC indexes were interpreted as follows: less than 0.5 indicates a clear re-sensitizing effect; from 0.5 to 4 indicates a marginal or null re-sensitizing effect; and over 4 indicates antagonism.
# Experimental data for FIG. 4 were obtained as follows.
# MRSA 15852 = type: cell-based, Staphylococcus aureus; details: 15852
# Experimental: as §1, §2
# ATCC 25923 = assay: microbe, parasite or virus in culture; type: cell-based, Staphylococcus aureus; details: ATCC 25923
# Experimental: (§3) MICs were determined by microdilution susceptibility testing in 96-well plates (by Nunc) using inocula of 10^5 bacteria per ml. Cell populations were evaluated by optical density measurements at 620 nm and were calibrated against a set of standards. Hundred (100) μl of a bacterial suspension were added to 100 μl of culture medium (control) or to 100 μl of culture medium containing various polymer concentrations in 2-fold serial dilutions. Inhibition of proliferation was determined by optical density measurements at 620 nm after an incubation period of 24 hours at 37° C.
# ATCC 29213 = assay: microbe, parasite or virus in culture; type: cell-based, Staphylococcus aureus; details: ATCC 29213
# Experimental: as §3, §1, §2
# MRSA 15918 = assay: microbe, parasite or virus in culture; type: cell-based, Staphylococcus aureus; details: 15918
# Experimental: as §3, §1, §2
# S. aureus ATCC 29213 = assay: microbe, parasite or virus in culture
# Experimental: In parallel, MIC evolution was compared concomitantly for each new sub-culture, using bacteria harvested from control wells (wells cultured without antimicrobial agent from the previous sub-culture). The relative MIC was calculated for each experiment from the ratio of MIC obtained for subculture “n” to that obtained for first-time exposure.
# The relative MIC was determined as the normalized ratio of the MIC obtained for a given subculture to the MIC of the control.
# MICs were determined by microdilution susceptibility testing in 96-well plates using inocula of 10^5 bacteria per ml. Cell populations were evaluated by optical density measurements at 600 nm and were calibrated against a set of standards.
# In parallel, MIC evolution was compared concomitantly for each new generation, using bacteria harvested from control wells (wells cultured without antimicrobial agent from the previous generation). The relative MIC was calculated for each experiment from the ratio of MIC obtained for subculture “n” to that obtained for first-time exposure. […] MICs were determined by microdilution susceptibility testing in 96-well plates. Cell populations were evaluated by optical density measurements at 600 nm and were calibrated against a set of standards.
# E. coli 16327 = assay: microbe, parasite or virus in culture; details: 16327
# Experimental: as §3
# 100 μl of a bacterial suspension were added to 100 μl of culture medium (control) or to 100 μl of culture medium containing various antibiotic and C14(9-ene)KKNC12KNH2 (SEQ ID NO: 5) concentrations in 2-fold serial dilutions. Inhibition of proliferation was determined by optical density measurements at 620 nm after an incubation period of 24 hours at 37° C.
# E. coli CI14213 = type: cell-based, Escherichia coli
# Experimental: as §3
# [1] = test system: E. coli K-12 efflux knockout mutant; type: cell-based, Escherichia coli; details: E. coli K-12 strain with decreased levels of efflux pumps
# Experimental: as §3
# [2] = test system: E. coli K-12 resistant wild type; type: cell-based, Escherichia coli; details: E. coli K-12 multi-resistant wild type
# Escherichia coli strains = type: cell-based; details: isogenic pair of E. coli K-12 strains
# Experimental: as §3
# [3] = test system: various strains of S. aureus, E. coli P. aeruginosa, P. mirabilis and S. maltophila; type: cell-based; details: strain not stated
# Experimental: Antibacterial activity was determined using various strains of S. aureus, E. coli P. aeruginosa, P. mirabilis and S. maltophila, cultured in LB medium (10 grams/liter trypton, 5 grams/liter yeast extract, 5 grams/liter NaCl, pH 7.4). Bacterial strains include susceptible strains of Staphylococcus aureus, Pseudomonas aeruginosa, Bacillus cereus and Escherichia coli (ATCC, American Type Culture Collection), as well as antibiotic-resistant strains such as oxacillin-resistant Staphylococcus aureus (ORSA) and methicillin-resistant Staphylococcus aureus (MRSA).
# as §3
structure (smiles),measurement,setting,value
CCCCCCC=CCCCC(=O)N[C@@H](CCCCN)C(=O)N[C@@H](CCCCN)C(=O)NCCCCCCCCCCCC(=O)N[C@@H](CCCCN)C(N)=O [C12(5-ene)KKNC12KNH2],MIC,MRSA 15903; 15903,3.1 to 6.2 µM
same,MIC of polymer,MRSA 15903; 15903,6.2 µM
same,fractionary inhibitory concentration (FIC) index,"MRSA 15903; MRSA 15903, oxacillin + polymer at optimal concentration 2.1 μM",0.35
same,optimal re-sensitization polymer concentration,"MRSA 15903; MRSA 15903, with oxacillin",2.1 µM
same,MIC,MRSA 15852,6.2 µM
same,MIC,ATCC 25923,3.1 µM
same,MIC,ATCC 29213,6.2 µM
same,MIC,MRSA 15918,6.2 µM
same,mean polymer's MIC,S. aureus ATCC 29213; ATCC 29213,4.9 µg/mL
same,effect on relative MIC of now-resistant strain,"S. aureus ATCC 29213; now-resistant ATCC 29213, polymer alone or oxacillin + sub-MIC polymer",decreased the relative MIC
CCCCCCCCCCCC(=O)N[C@@H](CCCCN)C(=O)N[C@@H](CCCCN)C(=O)NCCCCCCCCCC(=O)N[C@@H](CCCCN)C(=O)N[C@@H](CCCCN)C(=O)NCCCCCCCCCC(=O)N[C@@H](CCCCN)C(=O)N[C@@H](CCCCN)C(=O)NCCCCCCCCCC(=O)N[C@@H](CCCCN)C(N)=O [C12K(KNC10K)3NH2] (Lauroyl-KK[NH(CH2)9CO]KK[NH(CH2)9CO]KK[NH(CH2)9CO]K-NH2),MIC of polymer,MRSA 15903; 15903,6.25 µM
same,MIC of polymer,E. coli 16327,3.1 µM
CCCCCCCCCCCC(=O)N[C@@H](CCCCN)C(=O)NCCCCCCCC(=O)N[C@@H](CCCCN)C(=O)NCCCCCCCC(=O)N[C@@H](CCCCN)C(=O)NCCCCCCCC(=O)N[C@@H](CCCCN)C(=O)NCCCCCCCC(=O)N[C@@H](CCCCN)C(=O)NCCCCCCCC(=O)N[C@@H](CCCCN)C(N)=O [C12K(NC8K)5NH2],MIC of polymer,E. coli CI14213; CI14213,6.2 µM
same,re-sensitizing effect of polymer on oxacillin,"E. coli CI14213; E. coli CI14213, polymer well below MIC (up to ⅛ MIC), 24 hours",endowed potency to oxacillin
same,effect of polymer on antibiotic MICs,[1],not altered significantly
same,effect of polymer on antibiotics potency,[2],enhanced antibiotics potency
same,MIC of polymer,Escherichia coli strains,3.125 µg/mL
CCCCC=CCCCCCCCC(=O)N[C@@H](CCCCN)C(=O)N[C@@H](CCCCN)C(=O)NCCCCCCCCCCCC(=O)N[C@@H](CCCCN)C(N)=O [C14(9-ene)KKNC12KNH2],MIC of polymer per se,[3],6.2 µM
CCCCCCC=CCCCCCCCC(=O)N[C@@H](CCCCN)C(=O)N[C@@H](CCCCN)C(=O)NCCCCCCCCCCCC(=O)N[C@@H](CCCCN)C(N)=O [C16(9-ene)KKNC12KNH2],MIC of polymer per se,[3],6.2 µM

# Reference: patent US20180153995A1, “USE OF ANTIMICROBIAL POLYMERS FOR RE-SENSITIZATION OF MICROORGANISMS UPON EMERGENCE OF RESISTANCE TO ANTI-MICROBIAL AGENTS” (Technion Research & Development Foundation Limited, priority 2008, published 2018)
